According to US11136337B2, “Pyrazole- and indazole-substituted oxadiazolopyridine derivatives for use as ghrelin O-acyl transferase (GOAT) inhibitors” (Boehringer Ingelheim International GmbH, priority 2018, dated 2021):

Target: human GOAT (Homo sapiens (Human), UniProt Q96T53)
Assay: Determination of hGOAT activity in HEK293 cells after incubation with test compound (acyl-ghrelin ELISA)
Type: cell-based
Details: HEK293 cells stably expressing human GOAT and preproghrelin; 5 h incubation with octanoate-BSA; acyl-ghrelin in medium by ELISA
Method: Determination of hGOAT Activity in HEK293 Cells after Incubation with Test Compound
HEK293 cells stably transfected with two expression vectors, one coding for preproghrelin cDNA and a second for the expression of human GOAT cDNA are used as a cellular model. After feeding the cells with octanoic acid for 5 hours, acyl-ghrelin is measured in cell culture medium by an ELISA procedure.
Cellline: Hek293 hGOAT/PPGhrl Clone #1B8Sodium octanoate, Sigma, Cat.-No. C5038
BD Poly-D-Lysin 384-well Plates, black-clear polystyrene BD Bioscience Cat.-No. […] ELISA human acylated Ghrelin Kit purchased from Bertin Pharman (detailed composition of buffers e.g. wash-puffer, ELISA buffer not known)
Cells are plated with a density of 5000 cells/well in 384-well poly-D-lysin plates and incubated for 1 day at 37° C., 5% CO2 in DMEM medium, 10% FCS, 1×NEAA, Puromycin (0.5 μg/ml) and G418 (1 mg/ml). Then the medium is changed to a identical medium without FCS and containing Octanoate-BSA (final concentration 100 μM each) and compound in DMSO (final DMSO concentration 0.3%). After incubation for 5 hours acylghrelin in the medium is measured by ELISA.
The medium sample is diluted 1:25 in Elisa buffer, a 25 μl aliquot is transferred to a 384-well ELISA plate previously washed 4 times with 100 μL wash buffer, and 25 μl tracer-solution is added. After incubation overnight (˜20 h) at 4° C. temperature the plate is washed 4 times with 100 μl wash-buffer per well. Finally 50 μl Ellman's reagent is added to each well and the plate is incubated in the dark for 20 minutes. The absorbance is measured at 405 nm in an Envision multilabel reader and the amount of acylated ghrelin is calculated according to a acylated ghrelin standard curve provided in the same plate.
The analysis of the data is performed by calculation of the percentage of acyl-ghrelin produced in the presence of test compound compared to the amount of acyl-ghrelin produced in the vehicle control samples. An inhibitor of the GOAT enzyme will give values between 100% CTL (no inhibition) and 0% CTL (complete inhibition).
IC50 values are calculated with Assay Explorer or other suited software based on curve fitting of results of 8 different compound concentrations.

Chain of human GOAT (Q96T53 whole entry): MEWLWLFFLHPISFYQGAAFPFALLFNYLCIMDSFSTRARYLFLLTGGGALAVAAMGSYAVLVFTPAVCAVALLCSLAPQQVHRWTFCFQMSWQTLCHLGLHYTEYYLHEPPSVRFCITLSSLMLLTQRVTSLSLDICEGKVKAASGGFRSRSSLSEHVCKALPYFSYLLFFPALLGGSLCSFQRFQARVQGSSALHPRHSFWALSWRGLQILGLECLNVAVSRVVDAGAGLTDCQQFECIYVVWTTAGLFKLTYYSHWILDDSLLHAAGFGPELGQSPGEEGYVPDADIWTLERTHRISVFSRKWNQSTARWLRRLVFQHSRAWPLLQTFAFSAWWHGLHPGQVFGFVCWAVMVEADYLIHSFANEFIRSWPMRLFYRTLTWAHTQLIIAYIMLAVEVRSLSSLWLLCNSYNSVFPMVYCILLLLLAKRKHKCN

| IC50 | SMILES |
| --- | --- |
| 600 pM | Cc1nc2nonc2c(N)c1Cn1cc(Br)c(C(F)(F)F)n1 [Example 1.7, 6-{[4-Bromo-3-(trifluoromethyl)-1H-pyrazol-1-yl]methyl}-5-methyl-[1,2,5]oxadiazolo[3,4-b]pyridin-7-amine] |
| 110 pM | Cc1nc2nonc2c(N)c1Cn1ccc(-c2c[nH]nc2C(F)(F)F)n1 [Example 4.2] |
| 370 pM | Cc1nc2nonc2c(N)c1Cn1ccc(-c2cncn2C)n1 [Example 4.7] |
| 40 pM | Cc1nc2nonc2c(N)c1Cn1ccc(-c2nn(C)c3ccccc23)n1 [Example 4.9] |
| 5600 pM | Cc1nc2nonc2c(N)c1Cn1cc(-c2ccn[nH]2)cn1 [Example 4.15] |
| 3300 pM | Cc1nc2nonc2c(N)c1Cn1cc(NC(=O)OC(C)(C)C)cn1 [Example 1.5] |
| 690 pM | Cc1nc2nonc2c(N)c1Cn1cc2ccccc2n1 [Example 6.1, 6-[(2H-Indazol-2-yl)methyl]-5-methyl-[1,2,5]oxadiazolo[3,4-b]pyridin-7-amine] |
| 7400 pM | Cc1nc2nonc2c(N)c1Cn1ccc(CN2CCC(F)(F)CC2)n1 [Example 9.1, 6-({3-[(4,4-Difluoropiperidin-1-yl)methyl]-1H-pyrazol-1-yl}methyl)-5-methyl-[1,2,5]oxadiazolo [3,4-b]pyridin-7-amine] |
| 96 pM | Cc1nc2nonc2c(N)c1Cn1ccc(-c2cccc(S(C)(=O)=O)c2)n1 [Example 4.8] |
| 4400 pM | Cc1nc2nonc2c(N)c1Cn1cc(Br)cn1 [Example 2.6] |
| 1200 pM | Cc1nc2nonc2c(N)c1Cn1cc(-c2ccc(F)nc2)c(C(F)(F)F)n1 [Example 3.2] |
| 35 pM | Cc1nc2nonc2c(N)c1Cn1ccc(-c2ccccc2F)n1 [Example 2.1, 6-{[3-(2-Fluorophenyl)-1H-pyrazol-1-yl]methyl}-5-methyl-[1,2,5]oxadiazolo[3,4-b]pyridin-7-amine] |
| 190 pM | Cc1nc2nonc2c(N)c1Cn1ccc(-c2cn(C)c3ncccc23)n1 [Example 4.11] |
| 2600 pM | Cc1nc2nonc2c(N)c1Cn1cc(-c2ccnn2C)c(C(F)(F)F)n1 [Example 3.3] |
| 510 pM | Cc1nc2nonc2c(N)c1Cn1cc(C(C)(C)C)cn1 [Example 1.4] |
| 150 pM | Cc1nc2nonc2c(N)c1Cn1ccc(-c2cnn3cccnc23)n1 [Example 4.10] |
| 120 pM | Cc1nc2nonc2c(N)c1Cn1ccc(-c2cncs2)n1 [Example 4.3] |
| 380 pM | Cc1nc2nonc2c(N)c1Cn1ccc(-c2ccc(C#N)c(F)c2)n1 [Example 4.13] |
| 180 pM | Cc1nc2nonc2c(N)c1Cn1ccc(N2CCCS2(=O)=O)n1 [Example 2.5] |
| 34 pM | Cc1nc2nonc2c(N)c1Cn1ccc(-c2cccnc2F)n1 [Example 4.1, 6-{[3-(2-Fluoropyridin-3-yl)-1H-pyrazol-1-yl]methyl}-5-methyl-[1,2,5]oxadiazolo[3,4-b]pyridin-7-amine] |
| 1700 pM | Cc1nc2nonc2c(N)c1Cn1ccc(C=O)n1 [Example 2.4, 1-({7-amino-5-methyl-[1,2,5]oxadiazolo[3,4-b]pyridin-6-yl}methyl)-1H-pyrazole-3-carbaldehyde] |

| IC50 | SMILES |
| --- | --- |
| 3500 pM | Cc1nc2nonc2c(N)c1Cn1ccc(C(=O)N2CCC(F)(F)CC2)n1 [Example 7.2] |
| 3300 pM | Cc1nc2nonc2c(N)c1Cn1cc(-c2cccc(S(C)(=O)=O)c2)c(C(F)(F)F)n1 [Example 3.1, 6-{[4-(3-Methanesulfonylphenyl)-3-(trifluoromethyl)-1H-pyrazol-1-yl]methyl}-5-methyl-[1,2,5]oxadiazolo[3,4-b]pyridin-7-amine] |
| 230 pM | Cc1nc2nonc2c(N)c1Cn1cc(-c2ccccc2F)cn1 [Example 2.2] |
| 1400 pM | Cc1nc2nonc2c(N)c1Cn1cc(C(F)(F)F)cn1 [Example 1.8] |
| 170 pM | Cc1nc2nonc2c(N)c1Cn1ccc(-c2ccco2)n1 [Example 4.6] |
| 5100 pM | Cc1nc2nonc2c(N)c1Cn1cc(-c2cnn(C)c2)c(C(F)(F)F)n1 [Example 3.4] |
| 1600 pM | Cc1nc2nonc2c(N)c1Cn1cc(-c2ccc(C#N)cc2)cn1 [Example 1.2] |
| 280 pM | Cc1nc2nonc2c(N)c1Cn1nccc1-c1ccccc1F [Example 2.3] |
| 2200 pM | Cc1nc2nonc2c(N)c1Cn1cc(-c2c(C)noc2C)cn1 [Example 1.3] |
| 840 pM | Cc1nc2nonc2c(N)c1Cn1ccc(C(=O)N2CCC(F)(F)C2)n1 [Example 7.1, 6-{[3-(3,3-Difluoropyrrolidine-1-carbonyl)-1H-pyrazol-1-yl]methyl}-5-methyl-[1,2,5]oxadiazolo[3,4-b]pyridin-7-amine] |
| 960 pM | COC(=O)c1ccn(Cc2c(C)nc3nonc3c2N)n1 [Example 1.6, Methyl 1-({7-amino-5-methyl-[1,2,5]oxadiazolo[3,4-b]pyridin-6-yl}methyl)-1H-pyrazole-3-carboxylate] |
| 76 pM | Cc1nc2nonc2c(N)c1Cn1ccc(-c2ccc(S(C)(=O)=O)cc2F)n1 [Example 4.12] |
| 3800 pM | Cc1nc2nonc2c(N)c1Cn1ccc(-c2cnoc2)n1 [Example 4.5] |
| 5100 pM | Cc1nc2nonc2c(N)c1Cn1ccc(C(=O)N2CCC(O)(C(F)(F)F)C2)n1 (stereo not drawn) [Example 7.3] |
| 3600 pM | Cc1nc2nonc2c(N)c1Cn1cc(-c2cnn(C)c2)cn1 [Example 4.16] |
| 290 pM | Cc1nc2nonc2c(N)c1Cn1ccc(-c2c(C)noc2C)n1 [Example 4.4] |
| 28 pM | Cc1nc2nonc2c(N)c1Cn1ccc(-c2cccc(C(F)(F)F)n2)n1 [Example 5.1, 5-Methyl-6-({3-[6-(trifluoromethyl)pyridin-2-yl]-1H-pyrazol-1-yl}methyl)-[1,2,5]oxadiazolo[3,4-b]pyridin-7-amine] |
| 3200 pM | Cc1nc2nonc2c(N)c1Cn1ccc(NC(=O)C(NC(=O)OCc2ccccc2)C(C)C)n1 (stereo not drawn) [Example 8.1, Benzyl N-(1-{[1-({7-amino-5-methyl-[1,2,5]oxadiazolo[3,4-b]pyridin-6-yl}methyl)-1H-pyrazol-3-yl]carbamoyl}-2-methylpropyl)carbamate] |
| 4400 pM | Cc1nc2nonc2c(N)c1Cn1cc2cc(C#N)ccc2n1 [Example 1.9] |
| 1700 pM | CCOC(=O)c1cnn(Cc2c(C)nc3nonc3c2N)c1 [Example 1.1, Ethyl 1-({7-amino-5-methyl-[1,2,5]oxadiazolo[3,4-b]pyridin-6-yl}methyl)-1H-pyrazole-4-carboxylate] |
| 200 pM | Cc1nc2nonc2c(N)c1Cn1ccc(-c2ccnn2C)n1 [Example 4.14] |
